Test results taken from patent publication US10266567B2, “Peptides and compositions comprising same and uses thereof in the treatment of diseases” (Ariel-University Research and Development Company Ltd., priority 2015, dated 2019).
“Also recorded” adds a separate entry of the source. Bridge positions count the residues as written; N and C are the ends. Ends that are not written are not given here.

Columns and labels:
B16-F10 melanoma cells = assay: Metastatic melanoma mice model using B16F10 cells; assay type: in vivo, C57BL/6 mice
Procedure: Metastatic melanoma mice model using B16F10 cells. Murine B16F10 cells grown in RPMI were harvested by trypsinization and washed with PBS. The cells were counted and resuspended in PBS to final concentrations of 1.0×10^5 cells/mL and were maintained at 4° C. for immediate i.v inoculation into the tail vein of C57BL6 male mice (Harlan Labs). Next day, following tumor cell inoculation, these animals received i.p. injection of ALOS peptide or saline. Injections were performed daily throughout the working week. Mice were weighed daily on the day of injection.
For analysis of the peptides' effect on melanoma nodule formation all mice were sacrificed 18 days following the i.v. injection. Organs were dissected analyzed visually. The lungs of sacrificed mice were rinsed in saline and fixed with Bouin's solution. The total number of visible nodules on the lung surface per animal was counted.
For analysis of the peptides' effect on survival of melanoma cell-inoculated mice, animals were observed several times a week for signs of lethargy such as weight loss, hunched position and epilepsy. In order to lessen suffering, when these symptoms occurred, mice were euthanized with cervical dislocation after CO2 anesthesia. Survival time was recorded and long-term survivors were defined as animals surviving longer than 3 times the median survival of non-treated animals.
ALOS3 and ALOS4 block melanoma growth in metastatic melanoma mice model: An important clinical problem of malignant tumors is that lethality is mostly attributed to metastasis of the primary neoplastic cells. Complete eradication of the primary malignant cells is usually limited, due to location of the tumor, spread to distant organs and severe side effects caused by treatment. The effects of ALOS 3 and 4 on artificial metastasis, using highly metastatic melanoma B16-F10 cells was studied. 5×10^4 cells of B16-F10/0.2 ml/mouse were injected into the tail vein of 8 weeks old C57BL/6 mice. […] 18 days later the mice were sacrificed, lungs were dissected and the total number of visible nodules on the lung surface was counted. […]

[1] = Elevated Plus Maze (EPM) test in metastatic melanoma mice; assay type: in vivo; details: 0.3 mg/kg chronic, vs control, p<0.01
Procedure: The EPM apparatus comprises two closed (10 cm×45 cm×40 cm) and two open (10 cm×45 cm) arms that extend from a common central platform (10 cm×10 cm). The black apparatus is elevated to a height of 60 cm above floor level. The tests were conducted at the same time of the day (10.00-12.00 h) during the period of illumination in the mice's colony room. For habituation, all animals were placed in the experimental room one hour prior to the test. Each animal was placed at the center of the maze, facing one of the closed arms. Each mouse spent a five minute session in the EPM, during which the number of entries into open and closed arms as well as time spent in the open and closed arms were video scored.

Sequence: CAPSPSRLC (disulfide 1-9 (inferred)) [ALOS3]
- Survival of metastatic melanoma mice (B16-F10 melanoma cells; 0.3 mg/kg daily i.p., 5×10^3 B16-F10 cells i.v., vs saline): significantly increased the survival; also recorded: significantly delayed animals' death
- Number of metastatic melanoma sites (visible nodules) in the lungs (B16-F10 melanoma cells; 0.3 mg/kg daily i.p., 5×10^4 B16-F10 cells i.v., day 18): significantly blocked the number of metastatic melanoma sites in the lungs
- Animals' weight during treatment course (B16-F10 melanoma cells; metastatic melanoma mice, ALOS vs saline): did not show weight loss
- EPM performance (ratio of time spent in open arms to total time), anxiolytic effect [1]: significantly increased the performance of the mice; also recorded: exerted anxiolytic effect
